Reference: patent US20140221361A1, “C-19 MODIFIED TRITERPENOIDS WITH HIV MATURATION INHIBITORY ACTIVITY” (priority 2013, published 2014)

Test system: recombinant NL4-3 virus (Renilla luciferase in nef, Gag P373S)
Experiment: HIV cell culture assay (luciferase reporter, MT-2 cells)
Type: cell-based, HIV-1
Settings: Renilla, NL43, MT-2 cells infected for 4-5 days with NLRluc recombinants; luciferase activity; serial dilutions of inhibitor
How it was run: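 MT-2 cells infected with recombinant NL4-3 carrying Renilla luciferase in place of part of nef and Gag P373S, virus made by 293T transfection. Infection ran 4-5 days with serial inhibitor dilutions. Antiviral activity read as luciferase activity (Dual Luciferase reagents mixed with lysis buffer).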

Row | Structure (SMILES) | EC50 [nM]
1 | CC(=O)N[C@@H]1CC[C@]2(NCCN3CCS(=O)(=O)CC3)CC[C@]3(C)[C@H](CC[C@@H]4[C@@]5(C)CC=C(c6ccc(C(=O)O)cc6)C(C)(C)[C@@H]5CC[C@]43C)[C@@H]12 [Example B36, 4-((1R,3aR,5aR,5bR,7aR,11aS,11bR,13aR,13bS)-1-acetamido-3a-((2-(1,1-dioxidothiomorpholino)ethyl)amino)-5a,5b,8,8,11a-pentamethyl-2,3,3a,4,5,5a,5b,6,7,7a,8,11,11a,11b,12,13,13a,13b-octadecahydro-1H-cyclopenta[a]chrysen-9-yl)benzoic acid] | 6.29
2 | CN[C@@H]1CC[C@]2(NCCN3CCS(=O)(=O)CC3)CC[C@]3(C)[C@H](CC[C@@H]4[C@@]5(C)CC=C(c6ccc(C(=O)O)cc6)C(C)(C)[C@@H]5CC[C@]43C)[C@@H]12 [Example B37, 4-((1R,3aR,5aR,5bR,7aR,11aS,11bR,13aR,13bS)-3a-((2-(1,1-dioxidothiomorpholino)ethyl)amino)-5a,5b,8,8,11a-pentamethyl-1-(methylamino)-2,3,3a,4,5,5a,5b,6,7,7a,8,11,11a,11b,12,13,13a,13b-octadecahydro-1H-cyclopenta[a]chrysen-9-yl)benzoic acid] | 40
3 | CN(C)[C@@H]1CC[C@]2(NCCN3CCS(=O)(=O)CC3)CC[C@]3(C)[C@H](CC[C@@H]4[C@@]5(C)CC=C(c6ccc(C(=O)O)cc6)C(C)(C)[C@@H]5CC[C@]43C)[C@@H]12 [Example B38, 4-((1R,3aR,5aR,5bR,7aR,11aS,11bR,13aR,13bS)-1-(dimethylamino)-3a-((2-(1,1-dioxidothiomorpholino)ethyl)amino)-5a,5b,8,8,11a-pentamethyl-2,3,3a,4,5,5a,5b,6,7,7a,8,11,11a,11b,12,13,13a,13b-octadecahydro-1H-cyclopenta[a]chrysen-9-yl)benzoic acid] | 10
4 | CC1(C)C(c2ccc(C(=O)O)cc2)=CC[C@]2(C)[C@H]3CC[C@@H]4[C@H]5[C@H](CO)CC[C@]5(NCCN5CCS(=O)(=O)CC5)CC[C@@]4(C)[C@]3(C)CC[C@@H]12 [Example B42, 4-((1R,3aS,5aR,5bR,7aR,11aS,11bR,13aR,13bS)-3a-((2-(1,1-dioxidothiomorpholino)ethyl)amino)-1-(hydroxymethyl)-5a,5b,8,8,11a-pentamethyl-2,3,3a,4,5,5a,5b,6,7,7a,8,11,11a,11b,12,13,13a,13b-octadecahydro-1H-cyclopenta[a]chrysen-9-yl)benzoic acid] | 40
5 | CC1(C)C(c2ccc(C(=O)O)cc2)=CC[C@]2(C)[C@H]3CC[C@@H]4[C@H]5[C@H](NC(=O)C(F)(F)F)CC[C@]5(NCCN5CCS(=O)(=O)CC5)CC[C@@]4(C)[C@]3(C)CC[C@@H]12 [Example B43, 4-((1R,3aR,5aR,5bR,7aR,11aS,11bR,13aR,13bS)-3a-((2-(1,1-dioxidothiomorpholino)ethyl)amino)-5a,5b,8,8,11a-pentamethyl-1-(2,2,2-trifluoroacetamido)-2,3,3a,4,5,5a,5b,6,7,7a,8,11,11a,11b,12,13,13a,13b-octadecahydro-1H-cyclopenta[a]chrysen-9-yl)benzoic acid] | 2.12
6 | CN(C(=O)C(F)(F)F)[C@@H]1CC[C@]2(NCCN3CCS(=O)(=O)CC3)CC[C@]3(C)[C@H](CC[C@@H]4[C@@]5(C)CC=C(c6ccc(C(=O)O)cc6)C(C)(C)[C@@H]5CC[C@]43C)[C@@H]12 [Example B44, 4-((1R,3aR,5aR,5bR,7aR,11aS,11bR,13aR,13bS)-3a-((2-(1,1-dioxidothiomorpholino)ethyl)amino)-5a,5b,8,8,11a-pentamethyl-1-(2,2,2-trifluoro-N-methylacetamido)-2,3,3a,4,5,5a,5b,6,7,7a,8,11,11a,11b,12,13,13a,13b-octadecahydro-1H-cyclopenta[a]chrysen-9-yl)benzoic acid] | 5.92
7 | CC1(C)C(c2ccc(C(=O)O)cc2)=CC[C@]2(C)[C@H]3CC[C@@H]4[C@H]5[C@H](NC(=O)c6ccc(C7(C(F)(F)F)N=N7)cc6)CC[C@]5(NCCN5CCS(=O)(=O)CC5)CC[C@@]4(C)[C@]3(C)CC[C@@H]12 [Example B45, 4-((1R,3aR,5aR,5bR,7aR,11aS,11bR,13aR,13bS)-3a-((2-(1,1-dioxidothiomorpholino)ethyl)amino)-5a,5b,8,8,11a-pentamethyl-1-(4-(3-(trifluoromethyl)-3H-diazirin-3-yl)benzamido)-2,3,3a,4,5,5a,5b,6,7,7a,8,11,11a,11b,12,13,13a,13b-octadecahydro-1H-cyclopenta[a]chrysen-9-yl)benzoic acid] | 50
8 | CC(=O)[C@@H]1CC[C@]2(N)CC[C@]3(C)[C@H](CC[C@@H]4[C@@]5(C)CC=C(c6ccc(C(=O)O)cc6)C(C)(C)[C@@H]5CC[C@]43C)[C@@H]12 [Example B46, 4-((1R,3aS,5aR,5bR,7aR,11aS,11bR,13aR,13bS)-1-acetyl-3a-amino-5a,5b,8,8,11a-pentamethyl-2,3,3a,4,5,5a,5b,6,7,7a,8,11,11a,11b,12,13,13a,13b-octadecahydro-1H-cyclopenta[a]chrysen-9-yl)benzoic acid] | 290
9 | CC(=O)[C@@H]1CC[C@]2(NCCN3CCS(=O)(=O)CC3)CC[C@]3(C)[C@H](CC[C@@H]4[C@@]5(C)CC=C(c6ccc(C(=O)O)cc6)C(C)(C)[C@@H]5CC[C@]43C)[C@@H]12 [Example B47, 4-((1R,3aS,5aR,5bR,7aR,11aS,11bR,13aR,13bS)-1-acetyl-3a-((2-(1,1-dioxidothiomorpholino)ethyl)amino)-5a,5b,8,8,11a-pentamethyl-2,3,3a,4,5,5a,5b,6,7,7a,8,11,11a,11b,12,13,13a,13b-octadecahydro-1H-cyclopenta[a]chrysen-9-yl)benzoic acid] | 10
10 | CC1([C@@H]2CC[C@]3(C(=O)O)CC[C@]4(C)[C@H](CC[C@@H]5[C@@]6(C)CC=C(c7ccc(C(=O)O)cc7)C(C)(C)[C@@H]6CC[C@]54C)[C@@H]23)CC1 [Example B48, (1R,3aS,5aR,5bR,7aR,11aS,11bR,13aR,13bR)-9-(4-carboxyphenyl)-5a,5b,8,8,11a-pentamethyl-1-(1-methylcyclopropyl)-2,3,3a,4,5,5a,5b,6,7,7a,8,11,11a,11b,12,13,13a,13b-octadecahydro-1H-cyclopenta[a]chrysene-3a-carboxylic acid] | 10
11 | CC1([C@@H]2CC[C@]3(N)CC[C@]4(C)[C@H](CC[C@@H]5[C@@]6(C)CC=C(c7ccc(C(=O)O)cc7)C(C)(C)[C@@H]6CC[C@]54C)[C@@H]23)CC1 [Example B49, 4-((1R,3aS,5aR,5bR,7aR,11aS,11bR,13aR,13bR)-3a-amino-5a,5b,8,8,11a-pentamethyl-1-(1-methylcyclopropyl)-2,3,3a,4,5,5a,5b,6,7,7a,8,11,11a,11b,12,13,13a,13b-octadecahydro-1H-cyclopenta[a]chrysen-9-yl)benzoic acid] | 0.985
12 | CN[C@]12CC[C@@H](C3(C)CC3)[C@@H]1[C@H]1CC[C@@H]3[C@@]4(C)CC=C(c5ccc(C(=O)O)cc5)C(C)(C)[C@@H]4CC[C@@]3(C)[C@]1(C)CC2 [Example B50, 4-((1R,3aS,5aR,5bR,7aR,11aS,11bR,13aR,13bR)-5a,5b,8,8,11a-pentamethyl-3a-(methylamino)-1-(1-methylcyclopropyl)-2,3,3a,4,5,5a,5b,6,7,7a,8,11,11a,11b,12,13,13a,13b-octadecahydro-1H-cyclopenta[a]chrysen-9-yl)benzoic acid] | 1.36
13 | CC1([C@@H]2CC[C@]3(NC(=O)CN4CCS(=O)(=O)CC4)CC[C@]4(C)[C@H](CC[C@@H]5[C@@]6(C)CC=C(c7ccc(C(=O)O)cc7)C(C)(C)[C@@H]6CC[C@]54C)[C@@H]23)CC1 [Example B51, 4-((1R,3aS,5aR,5bR,7aR,11aS,11bR,13aR,13bR)-3a-(2-(1,1-dioxidothiomorpholino)acetamido)-5a,5b,8,8,11a-pentamethyl-1-(1-methylcyclopropyl)-2,3,3a,4,5,5a,5b,6,7,7a,8,11,11a,11b,12,13,13a,13b-octadecahydro-1H-cyclopenta[a]chrysen-9-yl)benzoic acid] | 1.1
14 | CC1([C@@H]2CC[C@]3(NCCN4CCS(=O)(=O)CC4)CC[C@]4(C)[C@H](CC[C@@H]5[C@@]6(C)CC=C(c7ccc(C(=O)O)cc7)C(C)(C)[C@@H]6CC[C@]54C)[C@@H]23)CC1 [Example B52, 4-((1R,3aS,5aR,5bR,7aR,11aS,11bR,13aR,13bR)-3a-((2-(1,1-dioxidothiomorpholino)ethyl)amino)-5a,5b,8,8,11a-pentamethyl-1-(1-methylcyclopropyl)-2,3,3a,4,5,5a,5b,6,7,7a,8,11,11a,11b,12,13,13a,13b-octadecahydro-1H-cyclopenta[a]chrysen-9-yl)benzoic acid] | 0.924
15 | CC1([C@@H]2CC[C@]3(NCCN4CCC(S(C)(=O)=O)CC4)CC[C@]4(C)[C@H](CC[C@@H]5[C@@]6(C)CC=C(c7ccc(C(=O)O)cc7)C(C)(C)[C@@H]6CC[C@]54C)[C@@H]23)CC1 [Example B53, 4-((1R,3aS,5aR,5bR,7aR,11aS,11bR,13aR,13bR)-5a,5b,8,8,11a-pentamethyl-1-(1-methylcyclopropyl)-3a-(2-(4-(methylsulfonyl)piperidin-1-yl)ethylamino)-2,3,3a,4,5,5a,5b,6,7,7a,8,11,11a,11b,12,13,13a,13b-octadecahydro-1H-cyclopenta[a]chrysen-9-yl)benzoic acid] | 1.03
16 | CC1([C@@H]2CC[C@]3(N)CC[C@]4(C)[C@H](CC[C@@H]5[C@@]6(C)CC[C@H](c7ccc(C(=O)O)cc7)C(C)(C)[C@@H]6CC[C@]54C)[C@@H]23)CC1 [Example B54, 4-((1R,3aS,5aR,5bR,7aS,9S,11aS,11bR,13aR,13bR)-3a-amino-5a,5b,8,8,11a-pentamethyl-1-(1-methylcyclopropyl)icosahydro-1H-cyclopenta[a]chrysen-9-yl)benzoic acid] | 0.577
17 | CN[C@]12CC[C@@H](C3(C)CC3)[C@@H]1[C@H]1CC[C@@H]3[C@@]4(C)CC[C@H](c5ccc(C(=O)O)cc5)C(C)(C)[C@@H]4CC[C@@]3(C)[C@]1(C)CC2 [Example B55] | 1.51
